Each structure is given as a SMILES string. A value given as a limit tells only on which side of the number the result lay.

Chain of Human TRPA1 (O75762 whole entry): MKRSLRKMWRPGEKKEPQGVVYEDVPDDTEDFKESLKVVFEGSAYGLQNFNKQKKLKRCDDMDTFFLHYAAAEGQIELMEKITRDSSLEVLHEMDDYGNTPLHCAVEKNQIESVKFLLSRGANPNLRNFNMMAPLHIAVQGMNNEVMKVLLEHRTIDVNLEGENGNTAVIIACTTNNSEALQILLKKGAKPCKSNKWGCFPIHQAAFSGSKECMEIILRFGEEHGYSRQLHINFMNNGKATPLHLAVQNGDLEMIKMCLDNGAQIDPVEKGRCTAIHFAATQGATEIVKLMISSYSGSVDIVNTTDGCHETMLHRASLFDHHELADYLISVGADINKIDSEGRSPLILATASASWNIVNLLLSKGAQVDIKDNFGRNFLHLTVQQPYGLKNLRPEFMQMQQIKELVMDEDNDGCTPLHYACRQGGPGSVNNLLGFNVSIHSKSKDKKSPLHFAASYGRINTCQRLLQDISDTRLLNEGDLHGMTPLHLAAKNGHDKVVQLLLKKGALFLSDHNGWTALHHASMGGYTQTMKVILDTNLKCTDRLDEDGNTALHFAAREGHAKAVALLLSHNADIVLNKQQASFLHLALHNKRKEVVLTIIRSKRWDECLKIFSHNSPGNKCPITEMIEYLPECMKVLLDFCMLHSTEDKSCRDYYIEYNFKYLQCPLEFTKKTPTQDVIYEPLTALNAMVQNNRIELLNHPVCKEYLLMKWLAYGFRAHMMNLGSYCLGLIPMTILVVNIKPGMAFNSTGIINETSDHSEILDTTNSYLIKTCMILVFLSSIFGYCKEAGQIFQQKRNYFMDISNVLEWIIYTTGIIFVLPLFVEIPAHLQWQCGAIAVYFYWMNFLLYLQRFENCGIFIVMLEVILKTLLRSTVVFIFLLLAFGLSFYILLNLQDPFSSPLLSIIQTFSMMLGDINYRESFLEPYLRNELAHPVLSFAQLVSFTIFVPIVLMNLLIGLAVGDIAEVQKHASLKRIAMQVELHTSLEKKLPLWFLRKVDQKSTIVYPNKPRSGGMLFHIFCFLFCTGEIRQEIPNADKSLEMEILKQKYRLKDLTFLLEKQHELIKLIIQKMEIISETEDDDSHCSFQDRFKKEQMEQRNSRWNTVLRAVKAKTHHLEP

The assay has as its target Human TRPA1 (Homo sapiens, UniProt O75762). The assay is described as follows: Alternative TRPA1 Ca2+ fluorometry assay (hTRPA1/TREx-HEK293 cells, Fluo-4, FDSS 6000). Format: cell-based. Set-up: expressed in transfected cells. Conditions: Fluo-4-AM, agonist 6,11-dihydro-5H-dibenzo[b,e]azepine-10-carboxylic acid methyl ester 25 nM, procedure used for Examples 184, 190 to 192, 194 to 316. As to the method:
In alternative embodiments, the assay was performed using the following procedure for Examples 184, 190 to 192, and 194 to 316:
The human TRPA1 gene was cloned into the pT-Rex-Dest30 inducible vector and stably transfected in T-Rex™-293 cells (Invitrogen, Merelbeke, Belgium). This tetracycline inducible hTRPA1 expression system was used in order to prevent CA^2+ overload in the cultured cells due to sustained TRPA1 expression. hTRPA1/TREx-HEK293 cells (referred to as jTRPA1 cells in the following text) were maintained under standard sterile cell culture conditions. The culture medium for the jTRPA1-HEK cells was DMEN (Gibco BRL, Invitrogen, Merelbeke, Belgium) supplemented with 5 g/l gengticin (Gibco), 5 mL/l blasticidin (Invitorgen), 14.6 g/l L-Glutamine (200 mMl; Gibco), 5 g/l penicillin/streptomycin (5.10-6 IU/I, Gibco), 5.5 g/l pyruvic acid (Gibco) and 10% foetal calf serum (Hyclone, Logan Utah, USA).
For Ca^2+ fluorometry experiments, hTRPA1-HEK cells were resuspended in HBSS seeding medium: HBSS (with CaCl2 and MgCl2: Gibco) supplemented with 14.6 g/l L-Glutamine (200 mM; Gibco), 5 g/l penicillin/streptomycin (5.10-6 IU/l. Gibco), 5.5 g/l pyruvic acid (Gibco) and 10% foetal calf serum (heat inactivated for 30 minutes at 56° C.; Hyclone, Logan Utah, USA). The cells were seeded in poly-D-lysine-coated 384-well round bottom polypropylene plates (Costar Corning, Data Packaging, Cambridge Mass., USA) at 12000 cells/well. Fifty ng/ml tetracycline was added to induce the hTRPA1 expression 24 h before the experiment.
The cells were loaded with 5 mg/l Fluo-4-AM (Molecular Probes, Invitorgen, Merelbeke, Belgium) dissolved in HBSS seeding medium supplemented with 0.7 g/l Probenecid (Sigma) and incubated for 1 h at 37° C. and subsequently at 20° C. for 1 to 2 h. The fluorescence was measured in the FDSS 6000 imaging based plate reader (Hamamutsu Photonics K.K., Hamamutsu City, Japan). The excitation wavelength was 488 nm and the emission wavelength 540 nm. After a control period of 12 seconds the inventive compounds were added and the Ca^2+ signal was measured within 14 minutes after application. Finally, a TRPA1 agonist, 6,11-dihydro-5H-dibenzo[b,e]azepine-10-carboxylic acid methyl ester, was added at a final concentration of 25 nM. The emission ratio was calculated by dividing the emission signal (Em540) by the first EM540 signal of the control period to compensate for the background fluorescence. […] For intracellular Ca^2+ measurements, a compound stock solution (10 to 100 mM) was further diluted in DMSO in order to obtain a final 1% DMSO concentration in the extracellular solution.
For the molecule `O=C(NCc1cc(-c2ccc(Br)cc2)nc(N[C@@H](CO)Cc2ccccc2)n1)[C@@H]1CCCN1S(=O)(=O)c1ccc(F)cc1` [Example 210, 1-(4-Fluoro-benzenesulfonyl)-pyrrolidine-2S-carboxylic acid [6-(4-bromo-phenyl)-2-(1S-hydroxymethyl-2-phenyl-ethylamino)-pyrimidin-4-ylmethyl]-amide], the IC50 came to 4570 nM.
To `O=C(NCc1cc(-c2ccc(Br)cc2)nc(NC2CCCC2)n1)[C@@H]1CCCN1S(=O)(=O)c1ccc(F)cc1` [Example 211, 1-(4-Fluoro-benzenesulfonyl)-pyrrolidine-2S-carboxylic acid [6-(4-bromo-phenyl)-2-cyclopentylamino-pyrimidin-4-ylmethyl]-amide] belongs roughly 1620 nM.
As for `CC(Nc1nc(CNC(=O)[C@@H]2CCCN2S(=O)(=O)c2ccc(F)cc2)cc(-c2ccc(Br)cc2)n1)c1ccccc1` (stereo partly drawn) [Example 212, 1-(4-Fluoro-benzenesulfonyl)-pyrrolidine-2S-carboxylic acid [6-(4-bromo-phenyl)-2-(1(R,S)-phenyl-ethylamino)-pyrimidin-4-ylmethyl]-amide], the figure is 676 nM; as for `O=C(NCc1cc(-c2ccc(Br)cc2)nc(N2CCC(Cc3ccccc3)CC2)n1)[C@@H]1CCCN1S(=O)(=O)c1ccc(F)cc1` [Example 213, 1-(4-Fluoro-benzenesulfonyl)-pyrrolidine-2S-carboxylic acid [2-(4-benzyl-piperidin-1-yl)-6-(4-bromo-phenyl)-pyrimidin-4-ylmethyl]-amide], 2400 nM; as for `CCOC(=O)C1CCN(c2nc(CNC(=O)[C@@H]3CCCN3S(=O)(=O)c3ccc(F)cc3)cc(-c3ccc(Br)cc3)n2)CC1` [Example 214, 1-[4-(4-Bromo-phenyl)-6-({[1-(4-fluoro-benzenesulfonyl)-pyrrolidine-2S-carbonyl]-amino}-methyl)-pyrimidin-2-yl]-piperidine-4-carboxylic acid ethyl ester], roughly 977 nM.
To `CCCCNc1nc(CNC(=O)[C@@H]2CCCN2S(=O)(=O)c2ccc(F)cc2)cc(-c2ccc(Br)cc2)n1` [Example 215, 1-(4-Fluoro-benzenesulfonyl)-pyrrolidine-2S-carboxylic acid [6-(4-bromo-phenyl)-2-butylamino-pyrimidin-4-ylmethyl]-amide] belongs 1020 nM; to `O=C(NCc1cc(-c2ccc(Br)cc2)nc(N2CCN(c3ccccn3)CC2)n1)[C@@H]1CCCN1S(=O)(=O)c1ccc(F)cc1` [Example 216, 1-(4-Fluoro-benzenesulfonyl)-pyrrolidine-2S-carboxylic acid [6-(4-bromo-phenyl)-2-(4-pyridin-2-yl-piperazin-1-yl)-pyrimidin-4-ylmethyl]-amide], 1200 nM.
`O=C(NCc1cc(-c2ccc(Br)cc2)nc(N2CCOCC2)n1)[C@@H]1CCCN1S(=O)(=O)c1ccc(F)cc1` [Example 217, 1-(4-Fluoro-benzenesulfonyl)-pyrrolidine-2S-carboxylic acid [6-(4-bromo-phenyl)-2-morpholin-4-yl-pyrimidin-4-ylmethyl]-amide]: the IC50 turned out to be 871 nM.
To `CN1CCCN(c2nc(CNC(=O)[C@@H]3CCCN3S(=O)(=O)c3ccc(F)cc3)cc(-c3ccc(Br)cc3)n2)CC1` [Example 218, 1-(4-Fluoro-benzenesulfonyl)-pyrrolidine-2S-carboxylic acid [6-(4-bromo-phenyl)-2-(4-methyl-[1,4]diazepan-1-yl)-pyrimidin-4-ylmethyl]-amide] belongs greater than 10000 nM; to `O=C(NCc1cc(-c2ccc(Br)cc2)nc(NCc2cccnc2)n1)[C@@H]1CCCN1S(=O)(=O)c1ccc(F)cc1` [Example 219, 1-(4-Fluoro-benzenesulfonyl)-pyrrolidine-2S-carboxylic acid {6-(4-bromo-phenyl)-2-[(pyridin-3-ylmethyl)-amino]-pyrimidin-4-ylmethyl}-amide], roughly 2690 nM; to `CN1CCN(c2nc(CNC(=O)[C@@H]3CCCN3S(=O)(=O)c3ccc(F)cc3)cc(-c3ccc(Br)cc3)n2)CC1` [Example 220, 1-(4-Fluoro-benzenesulfonyl)-pyrrolidine-2S-carboxylic acid [6-(4-bromo-phenyl)-2-(4-methyl-piperazin-1-yl)-pyrimidin-4-ylmethyl]-amide], roughly 4470 nM.
As for `O=C(NCc1cc(-c2ccc(Br)cc2)nc(NCCc2ccc(Cl)cc2Cl)n1)[C@@H]1CCCN1S(=O)(=O)c1ccc(F)cc1` [Example 221, 1-(4-Fluoro-benzenesulfonyl)-pyrrolidine-2S-carboxylic acid {6-(4-bromo-phenyl)-2-[2-(2,4-dichloro-phenyl)-ethylamino]-pyrimidin-4-ylmethyl}-amide], the figure is 2040 nM; as for `O=C(NCc1cc(-c2ccc(Br)cc2)nc(N2CCc3ccccc3C2)n1)[C@@H]1CCCN1S(=O)(=O)c1ccc(F)cc1` [Example 222, 1-(4-Fluoro-benzenesulfonyl)-pyrrolidine-2S-carboxylic acid [6-(4-bromo-phenyl)-2-(3,4-dihydro-1H-isoquinolin-2-yl)-pyrimidin-4-ylmethyl]-amide], 9120 nM; as for `O=C(NCc1cc(-c2ccc3c(c2)OCO3)nc(Nc2cccc(Cl)c2)n1)[C@@H]1CCCN1S(=O)(=O)c1ccc(F)cc1` [Example 223, 1-(4-Fluoro-benzenesulfonyl)-pyrrolidine-2S-carboxylic acid [6-benzo[1,3]dioxol-5-yl-2-(3-chloro-phenylamino)-pyrimidin-4-ylmethyl]-amide], greater than 10000 nM.
To `O=C(NCc1cc(-c2ccc3c(c2)OCO3)nc(Nc2ccc(Cl)cc2)n1)[C@@H]1CCCN1S(=O)(=O)c1ccc(F)cc1` [Example 224, 1-(4-Fluoro-benzenesulfonyl)-pyrrolidine-2S-carboxylic acid [6-benzo[1,3]dioxol-5-yl-2-(4-chloro-phenylamino)-pyrimidin-4-ylmethyl]-amide] belongs greater than 10000 nM.
As for `O=C(NCc1cc(-c2ccc3c(c2)OCO3)nc(Nc2ccc(F)cc2)n1)[C@@H]1CCCN1S(=O)(=O)c1ccc(F)cc1` [Example 225, 1-(4-Fluoro-benzenesulfonyl)-pyrrolidine-2S-carboxylic acid [6-benzo[1,3]dioxol-5-yl-2-(4-fluoro-phenylamino)-pyrimidin-4-ylmethyl]-amide], the IC50 was 2510 nM.
To `O=C(NCc1cc(-c2ccc(OC(F)(F)F)cc2)nc(N2CCN(c3ccccc3F)CC2)n1)[C@@H]1CCCN1S(=O)(=O)c1ccc(F)cc1` [Example 226, 1-(4-Fluoro-benzenesulfonyl)-pyrrolidine-2S-carboxylic acid [2-[4-(2-fluoro-phenyl)-piperazin-1-yl]-6-(4-trifluoromethoxy-phenyl)-pyrimidin-4-ylmethyl]-amide] belongs 115 nM; to `O=C(NCc1cc(-c2ccc(F)cc2)nc(N2CCN(c3ccccc3F)CC2)n1)[C@@H]1CCCN1S(=O)(=O)c1ccc(F)cc1` [Example 227, 1-(4-Fluoro-benzenesulfonyl)-pyrrolidine-2S-carboxylic acid {6-(4-fluoro-phenyl)-2-[4-(2-fluoro-phenyl)-piperazin-1-yl]-pyrimidin-4-ylmethyl}-amide], 1170 nM.
As for `COc1cccc(OC)c1-c1cc(CNC(=O)[C@@H]2CCCN2S(=O)(=O)c2ccc(F)cc2)nc(N2CCN(c3ccccc3F)CC2)n1` [Example 228, 1-(4-Fluoro-benzenesulfonyl)-pyrrolidine-2S-carboxylic acid {6-(2,6-dimethoxy-phenyl)-2-[4-(2-fluoro-phenyl)-piperazin-1-yl]-pyrimidin-4-ylmethyl}-amide], the figure is 2290 nM.
As for `N#Cc1ccc(-c2cc(CNC(=O)[C@@H]3CCCN3S(=O)(=O)c3ccc(F)cc3)nc(N3CCN(c4ccccc4F)CC3)n2)cc1` [Example 229, 1-(4-Fluoro-benzenesulfonyl)-pyrrolidine-2-carboxylic acid {6-(4-cyano-phenyl)-2-[4-(2-fluoro-phenyl)-piperazin-1-yl]-pyrimidin-4-ylmethyl}-amide], the figure is 1590 nM; as for `COc1ccc(F)cc1-c1cc(CNC(=O)[C@@H]2CCCN2S(=O)(=O)c2ccc(F)cc2)nc(N2CCN(c3ccccc3F)CC2)n1` [Example 230, 1-(4-Fluoro-benzenesulfonyl)-pyrrolidine-2S-carboxylic acid {6-(5-fluoro-2-methoxy-phenyl)-2-[4-(2-fluoro-phenyl)-piperazin-1-yl]-pyrimidin-4-ylmethyl}-amide], 1290 nM.

In general, IC50 refers to the concentration that gives 50% inhibition. Read a low IC50 as greater potency in that assay.

(Values after patent US8614201B2 (Janssen Pharmaceutica NV, priority 2009, dated 2013).)
